# According to US20130131161A1, “METHODS AND COMPOSITIONS FOR CARDIOVASCULAR DISEASES AND CONDITIONS” (priority 2009, published 2013):
# Tested on: Human umbilical vein endothelial cells (HUVECs)
# Assay: eNOS activity analysis: NO, ONOO− and NO/ONOO− release from HUVECs of 50 genotyped donors in response to LA-419 (Example 2)
# Assay type: cell-based
# Conditions: for Fold difference NO (mean ± sd) / Fold difference NO/ONOO− (mean ± sd) / Fold difference ONOO− (mean ± sd): (LA-419 1 μM)/(control)
# Procedure: Concurrent measurements of NO and ONOO^− were carried out with tandem electrochemical nanosensors combined into one working unit with a total diameter of 200-500 nm (FIG. 1). Their design was based on previously developed and well-characterized chemically modified carbon-fiber technology (Malinski and Taha, 1992; Lvovich and Scheeline, 1997). Each of the nanosensors was made by depositing a sensing material on the tip of a carbon fiber (length 4-5 μm, diameter 0.2-0.5 μm). The fibers were sealed with nonconductive epoxy and electrically connected to copper wires with conductive silver epoxy. A conductive film of polymeric nickel (II) tetrakis(3-methoxy-4-hydroxyphenyl)porphyrin for the NO-sensor and polymeric film of Mn (III) [2.2]paracyclophanylporphyrin was used for the ONOO^−-sensor.
# A module of NO/ONOO^− nanosensors (diameter 1-2 μm) with a platinum wire (0.1 mm) counter electrode and saturated calomel reference electrode (SCE) were applied. Differential pulse voltammetry (DPV) and amperometry were performed with a computer-based Gamry VFP600 multichannel potentiostat. DPV was used to measure the basal NO and ONOO^− concentrations, and amperometry was used to measure changes in NO and ONOO^− concentrations from its basal level with time. The DPV current at the peak potential characteristic for NO oxidation (0.65 V) and ONOO^− reduction (−0.45 V) was directly proportional to the local concentrations of these compounds in the immediate vicinity of the sensor. Linear calibration curves (current vs. concentration) were constructed for each sensor from 10 nM to 3 μM before and after measurements with aliquots of NO and ONOO^− standard solutions, respectively. The detection limit of the sensors was 1.0 nM.
# The quantification of each analyte (concentration in nM) was performed using a maximum current from amperograms and standard calibration curves. A reproducibility of measurements with nanosensors is relatively high (between 5-12%). […] The sensors were slowly raised 5±2 μm from the surface of a single endothelial cell. The eNOS agonist, calcium ionophore A23187 (CaI) as well as the different drugs were then added to the surrounding media at the cell surface with a nanoinjector that was also positioned by a computer controlled-micromanipulator.
# This example describes the genotype-specific response of the three major eNOS variants to 1 μM and 5 μM concentrations of LA-419. The three major genetic polymorphisms studied were the Glu298Asp variant (E298D or 894G→T) in exon 7 of […], the −786T→C variant in the promoter region, and the intron 4 polymorphism (VNTR). All of these variants have possible effects on the cardiovascular system and endothelial dysfunction. For this study, human umbilical vein endothelial cells (HUVECs) from 50 donors between 18 and 32 years of age were used.
# For the analysis several analysis techniques were employed. First, the effect of genotype on NO and ONOO^− release was explored within the different concentrations of LA-419 (control, 1 μM, 5 μM), calculated as the average peak release (nmols/L) of NO, ONOO^−, and NO/ONOO^−. The effect of genotype on the net increase in NO, ONOO^−, and NO/ONOO^− for LA-419 (1 μM and 5 μM) as compared to control was also measured. In addition, an analysis was done on the effect of genotype on the % change in NO, ONOO^−, and NO/ONOO^− production for LA-419 (1 μM and 5 μM), calculated as:
# % Change=[(avg. LA-419−avg. control)/(avg. control)]*100
# Finally, an evaluation was undertaken concerning the effect of genotype on the production of NO, ONOO^−, and NO/ONOO^− as the fold difference of control for LA-419 (1 μM and 5 μM), calculated as:
# Fold Difference=(avg. LA-419)/(avg. control)
# Within each calculation technique the results were compared for statistical significance using a non-parametric ANOVA Kruskal-Wallace test or a non-parametric Mann-Whitney U test. Statistical significance was set at a p-value <0.05 in a two-tailed distribution. […]
# [1] = 1 μM LA-419, Intron 4 variant b/a, a/a, c/c (n=14)
# [2] = 1 μM LA-419, Intron 4 variant b/b (n=31)
# [3] = 5 μM LA-419, Intron 4 variant b/a, a/a, c/c (n=14)
# [4] = 5 μM LA-419, Intron 4 variant b/b (n=31)
# [5] = Combination of all G894T + T-786C genotypes but G/G + T/T, n=31
# [6] = Combination of all G894T + T-786C genotypes but T/T + C/C, n=46
structure (smiles),measurement,setting,value
"CC(=O)SC1COC2C(O[N+](=O)[O-])COC12 (stereo not drawn) [LA-419, S-(6-Nitro-oxi-hexahydro-furo[3,2-b]furan-3-1-il)thioacetate]",NO % Change (mean ± sd),[1],11.76 (29.57) %
same,NO/ONOO− % Change (mean ± sd),[1],28.01 (62.22) %
same,ONOO− % Change (mean ± sd),[1],−2.68 (29.78) %
same,NO % Change (mean ± sd),[2],13.46 (23.13) %
same,NO/ONOO− % Change (mean ± sd),[2],43.27 (71.09) %
same,ONOO− % Change (mean ± sd),[2],−10.24 (27.17) %
same,NO % Change (mean ± sd),[3],16.16 (6.09) %
same,NO/ONOO− % Change (mean ± sd),[3],44.37 (12.85) %
same,ONOO− % Change (mean ± sd),[3],−19.27 (5.27) %
same,NO % Change (mean ± sd),[4],13.52 (6.80) %
same,NO/ONOO− % Change (mean ± sd),[4],42.24 (17.73) %
same,ONOO− % Change (mean ± sd),[4],−19.19 (7.76) %
same,Fold difference NO (mean ± sd),[5],1.14 (0.26)
same,Fold difference NO/ONOO− (mean ± sd),[5],1.41 (0.71)
same,Fold difference ONOO− (mean ± sd),[5],0.92 (0.30)
same,Fold difference NO (mean ± sd),[6],1.13 (0.25)
same,Fold difference NO/ONOO− (mean ± sd),[6],1.37 (0.68)
same,Fold difference ONOO− (mean ± sd),[6],0.93 (0.28)
same,Fold difference NO (mean ± sd),"G894T + T-786C G/G + T/C, n=8",1.03 (0.17)
same,Fold difference NO/ONOO− (mean ± sd),"G894T + T-786C G/G + T/C, n=8",1.07 (0.37)
same,Fold difference ONOO− (mean ± sd),"G894T + T-786C G/G + T/C, n=8",1.07 (0.36)
same,Fold difference NO (mean ± sd),"G894T + T-786C G/G + T/T, n=18",1.10 (0.20)
same,Fold difference NO/ONOO− (mean ± sd),"G894T + T-786C G/G + T/T, n=18",1.28 (0.57)
same,Fold difference ONOO− (mean ± sd),"G894T + T-786C G/G + T/T, n=18",0.94 (0.23)
same,Fold difference NO (mean ± sd),"G894T + T-786C G/T + C/C, n=1",0.86 (0)
same,Fold difference NO/ONOO− (mean ± sd),"G894T + T-786C G/T + C/C, n=1",0.49 (0)
same,Fold difference ONOO− (mean ± sd),"G894T + T-786C G/T + C/C, n=1",1.77 (0)
same,Fold difference NO (mean ± sd),"G894T + T-786C G/T + T/C, n=13",1.28 (0.33)
same,Fold difference NO/ONOO− (mean ± sd),"G894T + T-786C G/T + T/C, n=13",1.70 (0.81)
same,Fold difference ONOO− (mean ± sd),"G894T + T-786C G/T + T/C, n=13",0.81 (0.15)
same,Fold difference NO (mean ± sd),"G894T + T-786C G/T + T/T, n=4",1.08 (0.03)
same,Fold difference NO/ONOO− (mean ± sd),"G894T + T-786C G/T + T/T, n=4",1.12 (0.18)
same,Fold difference ONOO− (mean ± sd),"G894T + T-786C G/T + T/T, n=4",0.98 (0.18)
same,Fold difference NO (mean ± sd),"G894T + T-786C T/T + C/C, n=1",1.02 (0)
same,Fold difference NO/ONOO− (mean ± sd),"G894T + T-786C T/T + C/C, n=1",1.23 (0)
same,Fold difference ONOO− (mean ± sd),"G894T + T-786C T/T + C/C, n=1",0.83 (0)
same,Fold difference NO (mean ± sd),"G894T + T-786C T/T + C/C, n=3",1.07 (0.06)
same,Fold difference NO/ONOO− (mean ± sd),"G894T + T-786C T/T + C/C, n=3",1.20 (0.04)
same,Fold difference ONOO− (mean ± sd),"G894T + T-786C T/T + C/C, n=3",0.89 (0.06)
same,Fold difference NO (mean ± sd),"G894T + T-786C T/T + T/C, n=2",1.11 (0.36)
same,Fold difference NO/ONOO− (mean ± sd),"G894T + T-786C T/T + T/C, n=2",2.25 (1.17)
same,Fold difference ONOO− (mean ± sd),"G894T + T-786C T/T + T/C, n=2",0.52 (0.11)
same,Fold difference NO (mean ± sd),"G894T G/G & G/T, n=44",1.13 (0.25)
same,Fold difference NO/ONOO− (mean ± sd),"G894T G/G & G/T, n=44",1.34 (0.64)
same,Fold difference ONOO− (mean ± sd),"G894T G/G & G/T, n=44",0.95 (0.27)
same,Fold difference NO (mean ± sd),"G894T G/G, n=26",1.08 (0.19)
same,Fold difference NO/ONOO− (mean ± sd),"G894T G/G, n=26",1.22 (0.52)
same,Fold difference ONOO− (mean ± sd),"G894T G/G, n=26",0.98 (0.27)
same,Fold difference NO (mean ± sd),"G894T G/T & T/T, n=23",1.18 (0.28)
same,Fold difference NO/ONOO− (mean ± sd),"G894T G/T & T/T, n=23",1.53 (0.77)
same,Fold difference ONOO− (mean ± sd),"G894T G/T & T/T, n=23",0.87 (0.26)
same,Fold difference NO (mean ± sd),"G894T G/T, n=18",1.21 (0.30)
same,Fold difference NO/ONOO− (mean ± sd),"G894T G/T, n=18",1.50 (0.77)
same,Fold difference ONOO− (mean ± sd),"G894T G/T, n=18",0.90 (0.27)
same,Fold difference NO/ONOO− (mean ± sd),"G894T T/T, n=5",1.62 (0.82)
same,Fold difference ONOO− (mean ± sd),"G894T T/T, n=5",0.75 (0.21)
same,Fold difference NO (mean ± sd),"Intron 4 a/a, n=1",1.09 (0)
same,Fold difference NO/ONOO− (mean ± sd),"Intron 4 a/a, n=1",1.23 (0)
same,Fold difference ONOO− (mean ± sd),"Intron 4 a/a, n=1",0.89 (0)
same,Fold difference NO (mean ± sd),"Intron 4 a/a, n=3",0.95 (0.25)
same,Fold difference NO/ONOO− (mean ± sd),"Intron 4 a/a, n=3",0.96 (0.45)
same,Fold difference ONOO− (mean ± sd),"Intron 4 a/a, n=3",1.10 (0.34)
same,Fold difference NO (mean ± sd),"Intron 4 b/a, a/a, c/c, n=14",1.13 (0.23)
same,Fold difference NO/ONOO− (mean ± sd),"Intron 4 b/a, a/a, c/c, n=14",1.28 (0.62)
same,Fold difference ONOO− (mean ± sd),"Intron 4 b/a, a/a, c/c, n=14",0.97 (0.30)
same,Fold difference NO (mean ± sd),"Intron 4 b/a, n=10",1.21 (0.28)
same,Fold difference NO/ONOO− (mean ± sd),"Intron 4 b/a, n=10",1.43 (0.65)
same,Fold difference ONOO− (mean ± sd),"Intron 4 b/a, n=10",0.93 (0.31)
same,Fold difference NO (mean ± sd),"Intron 4 b/b, b/a, c/c, n=42",0.95 (0.25)
same,Fold difference NO/ONOO− (mean ± sd),"Intron 4 b/b, b/a, c/c, n=42",1.42 (0.69)
same,Fold difference ONOO− (mean ± sd),"Intron 4 b/b, b/a, c/c, n=42",0.91 (0.27)
same,Fold difference NO (mean ± sd),"Intron 4 b/b, n=31",1.13 (0.23)
same,Fold difference NO/ONOO− (mean ± sd),"Intron 4 b/b, n=31",1.43 (0.71)
same,Fold difference ONOO− (mean ± sd),"Intron 4 b/b, n=31",0.90 (0.27)
same,Fold difference NO (mean ± sd),"Intron 4 c/c, n=1",0.73 (0)
same,Fold difference NO/ONOO− (mean ± sd),"Intron 4 c/c, n=1",0.74 (0)
same,Fold difference ONOO− (mean ± sd),"Intron 4 c/c, n=1",0.99 (0)
same,Fold difference NO (mean ± sd),"T-786C C/C, n=1",1.02 (0)
same,Fold difference NO/ONOO− (mean ± sd),"T-786C C/C, n=1",1.23 (0)
same,Fold difference ONOO− (mean ± sd),"T-786C C/C, n=1",0.83 (0)
same,Fold difference NO (mean ± sd),"T-786C C/C, n=4",1.02 (0.12)
same,Fold difference NO/ONOO− (mean ± sd),"T-786C C/C, n=4",1.03 (0.36)
